# Test results as given in US20140017204A1, “Transfection of Mesothelium Body Cavity Lining with Gene Agents Followed by Chemotharapy to Treat Cancer of Organs in the Body Cavity” (WKD Holding Oy, priority 2012, published 2014).
# Assays:
# [1] = tested on: SKOV-3m cells; test: intraperitoneal ovarian cancer xenograft model in mice; type: in vivo, Balb/cA-nu female nude mice; details: for mean survival: control group 15±1 days
# Protocol: Gene therapy was also combined with chemotherapy. Therapy was initiated when sizable tumors were confirmed in magnetic resonance imaging (MRI). Adenovirus-mediated gene transfer was performed intravenously (2×10^9 pfu), while chemotherapy and monoclonal anti-VEGF-antibody were dosed intraperitoneally. […] Effectiveness was assessed by survival time and surrogate measures such as sequential MRI, immunohistochemistry, microvessel density and tumor growth.
# Cells were cultured in McCoy's 5A medium (Gibco, Invitrogen, Life Technologies). Cancer cells were tested to be mycoplasma free. Before in vivo inoculation, the cells were trypsinized and counted.
# Chemotherapy and anti-VEGF-antibody: Carboplatin 10 mg/ml infusion concentrate was used at a dose of 80 mg/kg for the primary treatment of Balb/cA-nu mice. The dose per Balb/cA-nu was 1.6 mg/500 μl NaCl 0.9%. Paclitaxel 6 mg/ml concentrate was used at a dose of 20 mg/kg. The dose per nude mouse was 320 μg/500 μl NaCl 0.9%. […] It was injected every fifth day.
# Viral vectors: Adenoviral vectors encoding sVEGFR-1-IgG fusion protein, sVEGFR-2-IgG fusion protein, sVEGFR-3-IgG fusion protein and LacZ (AdLacZ) as a control vector were used for the study.
# Animal model: Eight to 10-weeks-old (n ¼ 80) Balb/cA-nu female nude mice were used for the studies. Ovarian carcinoma was produced by inoculating 1×10^7 SKOV-3m cells into the peritoneal cavity of nude mice with a 22 G needle. Development of the ovarian cancerous tumors was followed by sequential MRI. When the first solid, measurable tumor was detected in MRI, gene transfer or other treatment was started on the following day. Mice were randomly divided into six groups:
# Tumors developed within 3 weeks after the inoculation of the tumor cells. The presence of all tumors was verified by MRI (magnetic resonance imaging) before starting the therapy. Tumors were observed weekly until the death of the mice. Plasma samples were collected 6, 13, 20 and 27 days after the treatment. Gene transfer was performed intravenously (i.v.) via tail vein in the final volume of 200 ll in 0.9% saline.
# MRI was done weekly after gene transfer or treatment, and tumor volumes were measured. The overall follow-up time lasted until the appearance of significant symptoms necessitating sacrifice or to the death. At the time of death, all tumor tissue, liver, spleen, kidneys and lungs were harvested, and tumor masses were weighed. Ascites fluid was collected in a syringe. The mice were kept in a pathogen-free isolated unit at the National Experimental Animal Center of the University of Eastern Finland. Food, water and sawdust bedding were autoclaved, and the mice received chow and water ad libitum.
# Photographs of histological sections were taken and processed using an Olympus AX70 microscope (Olympus Optical, Japan) and analySIS (Soft Imaging System, GmbH, Germany) and PhotoShop (Adobe) softwares. Microvessel density (MVD) and total microvascular area (%) of the tumors (TVA) were measured from CD34-immunostained sections using analySIS software at 100× magnification in a blinded manner (FIG. 36). Six to 10 different fields, which represented maximum MVD areas, were selected from each tumor. Necrotic areas were avoided. In addition, the total number of LYVE-1-positive lymphatic vessels per section was counted. Mean 6 SEM of the measurements are reported. […]
# [2] = tested on: malignant pleural mesothelioma; details: in vivo; cited from earlier work
# [3] = tested on: murine tumor; test: murine tumor volume: gemcitabine and interferon beta gene therapy vector (FIG. 21); type: in vivo; details: after 40 days; placebo about 1400
# Description: FIG. 21 is a chart comparing murine tumor volume of control; gemcitabine (administered day=0); interferon beta gene therapy vector (administered day=0); and interferon beta gene therapy vector (day=0) followed by gemcitabine (day=3).
compound,measurement,setting,value
N.N.O=C([O-])C1(C(=O)[O-])CCC1.[Pt+2] [carboplatin],mean survival,[1],13 ± 1 days
N.N.[Cl][Pt][Cl] [cisplatin],median survival time,[2],9 months
Nc1ccn([C@@H]2O[C@H](CO)[C@@H](O)C2(F)F)c(=O)n1 [gemcitabine],average tumor size,[3],1200 mm^3
CC(=O)O[C@H]1C(=O)[C@@]2(C)[C@H]([C@H](OC(=O)c3ccccc3)[C@]3(O)C[C@H](OC(=O)[C@H](O)[C@@H](NC(=O)c4ccccc4)c4ccccc4)C(C)=C1C3(C)C)[C@]1(OC(C)=O)CO[C@@H]1C[C@@H]2O [paclitaxel],mean survival,[1],15 ± 1 days
bevacizumab,effect on angiogenesis by micro-vessel measurements,"[1]; mouse, in vivo",did not have any effect
same,"effect on survival, tumor volume or mean tumor weight","[1]; mouse, in vivo",did not have any significant effect
same,effect on the survival,"[1]; mouse, in vivo",did not have any significant effect
